In the supplement of paper PMC11061612:

Experiments:
Experiment in all cases: Bliss excess, mean over the matrix (fraction); higher = more synergy
[1] = test system: COLO-668 (Small Cell Lung Carcinoma)
In short: (§1)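 After 24 hours at 37°C and 5% CO2 in 1536-well plates, cells in DMEM/F12 or RPMI plus 10% FBS received two-drug dose matrices for 72 hours. Viability came from CellTiter-Glo 2.0 luminescence and was scaled as inhibition, anchored at 0 by vehicle wells and at 1 by blank wells. Combination Emax is taken as the second-highest inhibition in the matrix, and Bliss excess as the observed combination effect less EA + EB − EA·EB, with EA and EB the single-agent effects.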

[2] = test system: KOPN-8 (B-Lymphoblastic Leukemia)
In short: as §1

[3] = test system: NCI-H650 (Lung Adenocarcinoma)
In short: as §1

[4] = test system: NCI-H1993 (Lung Adenocarcinoma)
In short: as §1

[5] = test system: HAL-01 (B-Lymphoblastic Leukemia)
In short: as §1

[6] = test system: KMRC-1 (Kidney Carcinoma)
In short: as §1

[7] = test system: G-401 (Other Solid Carcinomas)
In short: as §1

[8] = test system: NCI-H1838 (Lung Adenocarcinoma)
In short: as §1

[9] = test system: CADO-ES1 (Ewing's Sarcoma)
In short: as §1

[10] = test system: SNU-387 (Hepatocellular Carcinoma)
In short: as §1

[11] = test system: OACM5-1 (Esophageal Adenocarcinoma)
In short: as §1

[12] = test system: LC-1-sq (Squamous Cell Lung Carcinoma)
In short: as §1

[13] = test system: NCI-H1355 (Lung Adenocarcinoma)
In short: as §1

[14] = test system: MOLT-4 (T-Lymphoblastic Leukemia)
In short: as §1

[15] = test system: EFO-21 (Ovarian Carcinoma)
In short: as §1

[16] = test system: SW982 (Other Solid Carcinomas)
In short: as §1

[17] = test system: MV-4-11 (Acute Myeloid Leukemia)
In short: as §1

[18] = test system: ME-180 (Cervical Carcinoma)
In short: as §1

[19] = test system: ML-2 (Acute Myeloid Leukemia)
In short: as §1

[20] = test system: HCC1937 (Breast Carcinoma)
In short: as §1

Row | Compound | Bliss excess [1] | Bliss excess [2] | Bliss excess [3] | Bliss excess [4] | Bliss excess [5] | Bliss excess [6] | Bliss excess [7] | Bliss excess [8] | Bliss excess [9] | Bliss excess [10] | Bliss excess [11] | Bliss excess [12] | Bliss excess [13] | Bliss excess [14] | Bliss excess [15] | Bliss excess [16] | Bliss excess [17] | Bliss excess [18] | Bliss excess [19] | Bliss excess [20]
1 | COc1nnc2ccc(N3CCC(c4ccc(OCCN5CCN(C)C(=O)[C@H]5C)cc4)CC3)nn12 [AZD5153] + CC1(C)CCC(CN2CCN(c3ccc(C(=O)NS(=O)(=O)c4ccc(NCC5CCOCC5)c([N+](=O)[O-])c4)c(Oc4cnc5[nH]ccc5c4)c3)CC2)=C(c2ccc(Cl)cc2)C1 [Venetoclax] (first compound max 1 µM, 7x7, partner max 1 µM) | 0.0229 | 0.0517 | -0.132 | -0.0456 | -0.0804 | -0.063 | -0.0959 | -0.0605 | -0.088 | -0.0699 | -0.0458 | 0.0066 | -0.0243 | -0.0198 | -0.0464 | -0.0581 | 0.0014 | -0.0515 | 0.0122 | -0.0815
2 | CC(=O)c1c(C)c2cnc(Nc3ccc(N4CCNCC4)cn3)nc2n(C2CCCC2)c1=O [Palbociclib] + CC1(C)CCC(CN2CCN(c3ccc(C(=O)NS(=O)(=O)c4ccc(NCC5CCOCC5)c([N+](=O)[O-])c4)c(Oc4cnc5[nH]ccc5c4)c3)CC2)=C(c2ccc(Cl)cc2)C1 [Venetoclax] (first compound max 10 µM, 7x7, partner max 1 µM) | -0.0554 | -0.0341 | -0.0508 | 0.0108 | -0.0461 | -0.0653 | 0.0529 | 0.0042 | -0.177 | -0.0558 | 0.108 | -0.0161 | -0.0031 | -0.0654 | -0.0638 | -0.0508 | -0.0213 | -0.0622 | 0.0634 | -0.0578
3 | CC1(C)CCC(CN2CCN(c3ccc(C(=O)NS(=O)(=O)c4ccc(NCC5CCOCC5)c([N+](=O)[O-])c4)c(Oc4cnc5[nH]ccc5c4)c3)CC2)=C(c2ccc(Cl)cc2)C1 [Venetoclax] + C1CN(CCC1(C(=O)N[C@@H](CCO)C2=CC=C(C=C2)Cl)N)C3=NC=NC4=C3C=CN4 [Capivasertib] (first compound max 1 µM, 7x7, partner max 3 µM) | 0.0066 | -0.0009 | -0.0395 | -0.001 | -0.0206 | -0.028 | -0.105 | -0.0097 | -0.0206 | -0.0554 | 0.0191 | -0.0136 | -0.0379 | 0.0315 | -0.131 | -0.0523 | 0.0474 | -0.0015 | 0.03 | -0.0227
4 | NC1(C(=O)N[C@@H](CCO)c2ccc(Cl)cc2)CCN(c2ncnc3[nH]ccc23)CC1 [Capivasertib] + COc1nnc2ccc(N3CCC(c4ccc(OCCN5CCN(C)C(=O)[C@H]5C)cc4)CC3)nn12 [AZD5153] (first compound max 10 µM, 7x7, partner max 1 µM) | 0.0552 | -0.0463 | -0.0108 | 0.0372 | -0.0429 | 0.0129 | 0.012 | 0.0032 | 0.0331 | -0.004 | -0.019 | 0.0814 | 0.0316 | 0.0908 | -0.046 | -0.0535 | 0.0074 | -0.051 | -0.0187 | 0.0189
5 | NC1(C(=O)N[C@@H](CCO)c2ccc(Cl)cc2)CCN(c2ncnc3[nH]ccc23)CC1 [Capivasertib] + CC(=O)c1c(C)c2cnc(Nc3ccc(N4CCNCC4)cn3)nc2n(C2CCCC2)c1=O [Palbociclib] (first compound max 10 µM, 7x7, partner max 10 µM) | -0.0496 | -0.0079 | -0.0413 | 0.0642 | -0.0425 | -0.0272 | -0.009 | 0.0468 | -0.0849 | -0.0515 | -0.0299 | -0.0208 | 0.0107 | -0.0002 | -0.0533 | -0.0523 | -0.0164 | -0.0638 | -0.0354 | -0.0236
6 | CS(=O)(=O)CCNCc1ccc(-c2ccc3ncnc(Nc4ccc(OCc5cccc(F)c5)c(Cl)c4)c3c2)o1 [Lapatinib] + C[C@@H](Oc1cc(-c2cnn(C3CCNCC3)c2)cnc1N)c1c(Cl)ccc(F)c1Cl [Crizotinib] (first compound max 10 µM, 7x7, partner max 10 µM) | -0.0594 | -0.0482 | -0.0521 | 0.0268 | -0.0265 | -0.0725 | -0.0617 | -0.0919 | -0.0023 | -0.0754 | -0.0691 | 0.0171 | -0.0141 | -0.0084 | -0.0148 | -0.0579 | -0.0106 | -0.0227 | -0.0133 | -0.0404
7 | CC1(C)CCC(CN2CCN(c3ccc(C(=O)NS(=O)(=O)c4ccc(NCC5CCOCC5)c([N+](=O)[O-])c4)c(Oc4cnc5[nH]ccc5c4)c3)CC2)=C(c2ccc(Cl)cc2)C1 [Venetoclax] + Cn1cnc2c(F)c(Nc3ccc(Br)cc3Cl)c(C(=O)NOCCO)cc21 [Selumetinib] (first compound max 1 µM, 7x7, partner max 3 µM) | 0.116 | 0.113 | -0.0217 | -0.0358 | 0.0009 | -0.0344 | -0.0264 | -0.0013 | -0.0596 | -0.0601 | 0.0243 | -0.0135 | -0.032 | 0.021 | -0.069 | -0.0722 | -0.0022 | -0.01 | 0.0747 | -0.0392
8 | COc1nnc2ccc(N3CCC(c4ccc(OCCN5CCN(C)C(=O)[C@H]5C)cc4)CC3)nn12 [AZD5153] + C=CCn1c(=O)c2cnc(Nc3ccc(N4CCN(C)CC4)cc3)nc2n1-c1cccc(C(C)(C)O)n1 [AZD1775] (first compound max 1 µM, partner max 1 µM) | -0.0349 | -0.0267 | -0.0866 | -0.0758 | -0.0938 | -0.0108 | -0.0526 | -0.0531 | -0.0483 | -0.107 | 0.0128 | -0.0288 | 0.0155 | 0.0171 | -0.0036 | -0.079 | -0.0114 | -0.022 | -0.0214 | -0.0921
9 | Cn1cnc2c(F)c(Nc3ccc(Br)cc3Cl)c(C(=O)NOCCO)cc21 [Selumetinib] + CCN(CCO)CCCOc1ccc2c(Nc3cc(CC(=O)Nc4cccc(F)c4)[nH]n3)ncnc2c1 [AZD2811] (first compound max 10 µM, 7x7, partner max 1 µM) | -0.0161 | 0.0253 | 0.0056 | 0.0327 | 0.0385 | -0.0101 | 0.0143 | -0.0363 | -0.0515 | -0.0412 | 0.0404 | -0.0324 | 0.0102 | 0.0174 | -0.0877 | -0.0933 | -0.04 | -0.0346 | -0.0371 | 0.016
10 | COc1cccc2c1C(=O)c1c(O)c3c(c(O)c1C2=O)C[C@@](O)(C(=O)CO)C[C@@H]3O[C@H]1C[C@H](N)[C@H](O)[C@H](C)O1 [Doxorubicin] + Cc1cc2ncnn2cc1Nc1ncc2c(n1)n(C1CCOCC1)c(=O)n2C [AZD7648] (first compound max 1 µM, 7x7, partner max 10 µM) | 0.0633 | 0.119 | 0.0195 | -0.0182 | 0.0877 | 0.0835 | 0.0259 | -0.0577 | 0.111 | 0.005 | 0.0577 | 0.117 | 0.0337 | 0.135 | -0.03 | 0.0226 | 0.137 | 0.0438 | 0.0281 | 0.005
11 | COc1cccc(OCCCN)c1-c1cc(Nc2cnc(C#N)cn2)n[nH]1 [Prexasertib] + O=C(c1cc(Cc2n[nH]c(=O)c3ccccc23)ccc1F)N1CCN(C(=O)C2CC2)CC1 [Olaparib] (first compound max 1 µM, 7x7, partner max 10 µM) | -0.0759 | -0.0105 | -0.0442 | -0.0685 | 0.0006 | -0.0411 | -0.166 | -0.153 | -0.0315 | 0.0083 | -0.054 | -0.0468 | -0.0448 | 0.0154 | -0.1 | -0.103 | -0.0247 | -0.0511 | -0.0006 | -0.103
12 | CC1(C)CCC(CN2CCN(c3ccc(C(=O)NS(=O)(=O)c4ccc(NCC5CCOCC5)c([N+](=O)[O-])c4)c(Oc4cnc5[nH]ccc5c4)c3)CC2)=C(c2ccc(Cl)cc2)C1 [Venetoclax] + Cc1cc2ncnn2cc1Nc1ncc2c(n1)n(C1CCOCC1)c(=O)n2C [AZD7648] (first compound max 1 µM, 7x7, partner max 10 µM) | 0.0355 | 0.0037 | -0.0489 | -0.0583 | -0.022 | -0.0514 | -0.061 | 0.0538 | -0.0223 | -0.0413 | -0.0269 | 0.0004 | -0.0124 | 0.0142 | -0.0212 | 0.0103 | 0.0477 | 0.0013 | 0.0057 | -0.0733
13 | C=CCn1c(=O)c2cnc(Nc3ccc(N4CCN(C)CC4)cc3)nc2n1-c1cccc(C(C)(C)O)n1 [AZD1775] + C[C@@H]1COCCN1C2=NC(=NC(=C2)C3(CC3)[S@](=N)(=O)C)C4=C5C=CNC5=NC=C4 [AZD6738] (first compound max 1 µM, partner max 10 µM) | 0.0917 | -0.0006 | 0.0062 | -0.0727 |  | -0.002 | -0.0293 | -0.0173 | 0.0441 | -0.0302 | 0.0994 | 0.0139 | 0.0055 | 0.0397 | -0.0492 | -0.019 | -0.0103 | -0.0022 | 0.0095 | -0.0717
14 | Cc1c2c(nn1C)CSCc1cc(n(C)n1)CSc1cc(c3ccccc3c1)OCCCc1c(C(=O)O)n(C)c3c-2c(Cl)ccc13 [AZD5991] + CCN(CCO)CCCOc1ccc2c(Nc3cc(CC(=O)Nc4cccc(F)c4)[nH]n3)ncnc2c1 [AZD2811] (first compound max 1 µM, 7x7, partner max 1 µM) | 0.0172 | -0.0289 | 0.0512 | -0.0072 | 0.0012 | 0.0096 | -0.0061 | 0.0109 | 0.0101 | -0.0333 | 0.0416 | 0.0425 | -0.0466 | -0.0126 | -0.0065 | -0.0578 | -0.0046 |  | -0.0122 | -0.0028
